Ki data for eight molecules are collected here from patent US7446199B2, “Compositions useful as inhibitors of protein kinases” (Vertex Pharmaceuticals Incorporated, priority 2003, dated 2008).

pKi: −log10 of the molar value.

This experiment addresses T1, TAK1A-TAB fusion protein (Homo sapiens, UniProt O43318).
T1 construct: using 20 nM TAK1A-TAB fusion protein
T1 sequence (O43318 with tags, fused parts or gaps isoform O43318-2 limits assumed): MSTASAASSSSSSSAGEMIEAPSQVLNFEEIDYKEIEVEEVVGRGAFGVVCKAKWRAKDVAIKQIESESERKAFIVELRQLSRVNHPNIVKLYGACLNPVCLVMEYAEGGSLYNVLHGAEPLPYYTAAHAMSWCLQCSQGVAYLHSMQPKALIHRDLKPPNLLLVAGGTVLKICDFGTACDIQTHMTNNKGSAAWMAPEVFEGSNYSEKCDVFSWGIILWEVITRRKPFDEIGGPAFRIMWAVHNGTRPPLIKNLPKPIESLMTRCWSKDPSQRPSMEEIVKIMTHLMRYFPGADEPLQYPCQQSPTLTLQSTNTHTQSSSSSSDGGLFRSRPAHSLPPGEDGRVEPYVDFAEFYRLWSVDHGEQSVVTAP
The experiment is described as follows: TAK-1 inhibition assay, radiometric filter binding assay. It is filed as biochemical. To be noted: 50 μM ATP, 12 μM bovine myelin basic protein, 20 nM TAK1A-TAB fusion protein. Here is the method: Compounds were screened for their ability to inhibit TAK1A kinase activity using a radiometric filter binding assay. Reactions were carried out in a solution containing Buffer A (100 mM HEPES (pH 7.5), 10 mM MgCl2), 25 mM NaCl, 2 mM DTT, and 1.5% DMSO. Final substrate concentrations in the assay were 50 μM ATP (a mixture of unlabeled ATP (Sigma Chemicals, St Louis, Mo.) and ^33P-labeled ATP (PerkinElmer Life Sciences, Boston, Mass.) for a final specific activity of 50 Ci/mol), and 12 μM bovine myelin basic protein (MBP, Vertex Pharmaceuticals, Cambridge, Mass.). Reactions were carried out at ambient temperature (˜20° C.) using 20 nM TAK1A-TAB fusion protein. Under these conditions the extent of reaction is linear with time for a period of 2 hours.
A test compound of the present invention (1 μL in DMSO) was combined with ATP and Buffer A in a final volume of 47 μL in a 96 well plate. Typically, a 6 point titration was conducted by preparing serial dilutions (from 10 mM compound stocks) with DMSO of the test compounds of the present invention in daughter plates, for final concentrations spanning 0.046 μM to 3.73 μM. The reaction was initiated by the addition of 20 μl of an enzyme stock solution consisting of TAK1A-TAB fusion (described by Sugita, T. et al. in Biochem. Biophys. Res. Comm. 2002, 297, 1277-1281), MBP, Buffer A, NaCl, and DTT. The reaction was allowed to proceed for two hours at ambient temperature, then quenched with an equal volume of 10 mM unlabeled ATP in 10% trichloroacetic acid. A 110 μL aliquot of the quenched reaction was transferred to a Multiscreen PH filter plate (Millipore, Billerica, Mass.) and allowed to incubate at ambient temperature overnight (typically 16-20 hours). Following incubation the filter plates were washed with 3×150 μL aliquots of 5% trichloroacetic acid using a modified Biotek Elx405 plate washer. A 70 μL aliquot of Microscint 20 scintillation fluid (PerkinElmer) was added to each well, and the plate was then sealed and read on a TopCount NXT microplate scintillation counter (PerkinElmer). The Ki values were determined from the rate data as a function of inhibitor concentration.

What is called pKi is the Ki on a negative log10 scale, so that one unit is a factor of ten. A lower pKi goes with a large Ki. Consider `CN(C)CCNc1ccc(-c2cnc3[nH]cc(-c4nncn4-c4cccc(F)c4F)c3c2)cn1` [Compound 119, N′-(5-{3-[4-(2,3-Difluoro-phenyl)-4H-[1,2,4]triazol-3-yl]-1H-pyrrolo[2,3-b]pyridin-5-yl}-pyridin-2-yl)-N,N-dimethyl-ethane-1,2-diamine], for which the pKi is 4.90 to 6.00.
Under `Fc1cccc(-c2cnoc2-c2c[nH]c3ncc(/C=C/n4cncn4)cc23)c1F` [Compound 133, 3-[4-(2,3-Difluoro-phenyl)-isoxazol-5-yl]-5-(2-[1,2,4]triazol-1-yl-vinyl)-1H-pyrrolo[2,3-b]pyridine] stands 6.00 to 6.70; under `Cc1noc(-c2c[nH]c3ncc(-c4ccc(N5CCN(C)CC5)cc4)cc23)c1-c1cccc(F)c1F` [Compound 135, 3-[4-(2,3-Difluoro-phenyl)-3-methyl-isoxazol-5-yl]-5-[4-(4-methyl-piperazin-1-yl)-phenyl]-1H-pyrrolo[2,3-b]pyridine], more than 6.70.
Molecule `Fc1cccc(-c2cnoc2-c2c[nH]c3ncc(C4=CCC(NCc5ccccc5)CC4)cc23)c1F` (centres unmarked) [Compound 136, Benzyl-(4-{3-[4-(2,3-difluoro-phenyl)-isoxazol-5-yl]-1H-pyrrolo[2,3-b]pyridin-5-yl}-cyclohex-3-enyl)-amine] showed a negative-log Ki (pKi) of more than 6.70.
Under `NC1CC=C(c2cnc3[nH]cc(-c4oncc4-c4cccc(F)c4F)c3c2)CC1` (centres unmarked) [Compound 137, 4-{3-[4-(2,3-Difluoro-phenyl)-isoxazol-5-yl]-1H-pyrrolo [2,3-b]pyridin-5-yl}-cyclohex-3-enylamine] stands more than 6.70; under `CN(C)C1CC=C(c2cnc3[nH]cc(-c4oncc4-c4cccc(F)c4F)c3c2)CC1` (centres unmarked) [Compound 138, (4-{3-[4-(2,3-Difluoro-phenyl)-isoxazol-5-yl]-1H-pyrrolo[2,3-b]pyridin-5-yl}-cyclohex-3-enyl)-dimethyl-amine], more than 6.70; under `Fc1cccc(-c2cnoc2-c2c[nH]c3ncc(C4=CCC(N5CCOCC5)CC4)cc23)c1F` (centres unmarked) [Compound 139, 3-[4-(2,3-Difluoro-phenyl)-isoxazol-5-yl]-5-(4-morpholin-4-yl-cyclohex-1-enyl)-1H-pyrrolo[2,3-b]pyridine], 6.00 to 6.70.
`CS(=O)(=O)NC1CC=C(c2cnc3[nH]cc(-c4oncc4-c4cccc(F)c4F)c3c2)CC1` (centres unmarked) [Compound 140, N-(4-{3-[4-(2,3-Difluoro-phenyl)-isoxazol-5-yl]-1H-pyrrolo[2,3-b]pyridin-5-yl}-cyclohex-3-enyl)-methanesulfonamide]: the pKi is more than 6.70.
